The subject of the assay is androgen signalling. Briefly: androgen target gene expression in androgen sensitive target organ tissue. Type of assay: in vivo. The settings on record: after administration; no method, species or dose described.

Consider one compound from US20060069151A1, “Novel use of lycopene” (priority 2002, published 2006).

`CC(C)=CCC/C(C)=C/C=C/C(C)=C/C=C/C(C)=C/C=C/C=C(C)/C=C/C=C(C)/C=C/C=C(\C)CCC=C(C)C` [lycopene]: the “androgen target gene expression in androgen sensitive target organ tissue, as the endpoint and result of androgen signalling” value was “significantly reduced”.
